In patent US20250136570A1 (Tango Therapeutics, Inc., priority 2021, published 2025):

What was measured:
Recombinant HDAC1 = Recombinant HDAC1 (Homo sapiens (Human), UniProt Q13547); test: HDAC1 inhibition, Fluor de Lys fluorescent enzyme assay; type: biochemical; settings: 3 hours pre-incubation at room temp; 6 nM enzyme; 16 μM Fluor de Lys substrate; duplicate
Text: (§1) Recombinant HDAC1 (cat #: 50051) and HDAC3/NCor2 (cat #: 50003) enzymes were purchased from BPS Bioscience (San Diego, CA, US). Assay reagents for the detection of HDAC enzyme activity (Fluor de Lys®—Green substrate and Developer kits) were purchased from Enzo Life Science (Farmingdale, NY, US). Plates used to conduct the enzyme reaction were Proxiplate-384 (cat #: 6008280) Plus from PerkinElmer (Waltham, MA, US). TSA, an HDAC inhibitor, was purchased from Enzo Life Science (cat #BML-GR309-9090) The remainder of the reagents used to prepare the assay buffer were purchased from Sigma-Aldrich (St Louis, MO, US). Unless stated otherwise, HDAC1 and 3 assays were conducted in 50 mM Tris buffer, pH 8, 137 mM NaCl, 2.7 mM KCl, 0.01% BSA.
(§2) IC50 determination for HDAC1 and HDAC3—Prior to adding reagents, 50 nL/well of compound were added to Proxiplates using an Echo dispenser instrument (Beckman Coulter, CA, US). After addition of compound, 2.5 μL/well of 2× enzyme solution was added and the enzyme was pre-incubated with compound for 3 hours at room temp. (˜22° C.). After the pre-incubation period, the enzyme reaction was initiated by adding 2.5 μL/well of 2× Fluor de Lys® substrate solution. The assay reaction was stopped after one hour by adding 5 μl/well of a 0.66× Developer solution containing TSA (3.2 μM). The final product of the enzyme reaction was read using a Spectramax plate reader instrument (Molecular Devices, CA, US) using a fluorescent readout (Ex 360 nm/Em 460 nm). The final enzyme concentrations in the assay buffer for HDAC1 and 3 were 6 and 1.2 nM, respectively. The final Fluor de Lys® substrate concentration in the assay buffer was 16 μM for all HDAC enzymes. IC50 values were determined using the following equation: […]
(§3) Where Efree and Eo are the free and total amount of HDAC enzyme in the reaction mixture, n is the hill coefficient, I is the free inhibitor concentration, and IC50 is the measure of the potency equivalent to the inhibitor concentration that leads to a 50% occupancy of the total enzyme. Each data was generated in duplicate.

HDAC3/NCor2 = HDAC3/NCor2 (Homo sapiens (Human), UniProt O15379); test: HDAC3 inhibition, Fluor de Lys fluorescent enzyme assay; type: biochemical; settings: 3 hours pre-incubation at room temp; 1.2 nM enzyme; 16 μM Fluor de Lys substrate; duplicate
Sequence of HDAC3/NCor2 (O15379 whole entry): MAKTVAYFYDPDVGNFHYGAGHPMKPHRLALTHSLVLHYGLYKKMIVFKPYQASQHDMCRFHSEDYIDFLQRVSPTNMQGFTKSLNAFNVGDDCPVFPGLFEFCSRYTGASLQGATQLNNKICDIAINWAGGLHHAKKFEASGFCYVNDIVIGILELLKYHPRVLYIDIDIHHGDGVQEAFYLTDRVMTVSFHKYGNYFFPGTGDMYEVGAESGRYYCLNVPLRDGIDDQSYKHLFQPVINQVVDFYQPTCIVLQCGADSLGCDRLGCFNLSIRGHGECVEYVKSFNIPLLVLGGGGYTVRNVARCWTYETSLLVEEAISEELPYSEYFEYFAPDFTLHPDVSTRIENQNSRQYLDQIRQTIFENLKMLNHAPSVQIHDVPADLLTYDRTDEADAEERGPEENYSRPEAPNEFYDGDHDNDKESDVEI
Sequence of HDAC3/NCor2 (Q9Y618 395-489 partner): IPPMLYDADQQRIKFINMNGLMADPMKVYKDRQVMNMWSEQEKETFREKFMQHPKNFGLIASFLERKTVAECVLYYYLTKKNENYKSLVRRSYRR
Text: as §1, §2, §3

Sequence of Recombinant HDAC1 (Q13547 whole entry): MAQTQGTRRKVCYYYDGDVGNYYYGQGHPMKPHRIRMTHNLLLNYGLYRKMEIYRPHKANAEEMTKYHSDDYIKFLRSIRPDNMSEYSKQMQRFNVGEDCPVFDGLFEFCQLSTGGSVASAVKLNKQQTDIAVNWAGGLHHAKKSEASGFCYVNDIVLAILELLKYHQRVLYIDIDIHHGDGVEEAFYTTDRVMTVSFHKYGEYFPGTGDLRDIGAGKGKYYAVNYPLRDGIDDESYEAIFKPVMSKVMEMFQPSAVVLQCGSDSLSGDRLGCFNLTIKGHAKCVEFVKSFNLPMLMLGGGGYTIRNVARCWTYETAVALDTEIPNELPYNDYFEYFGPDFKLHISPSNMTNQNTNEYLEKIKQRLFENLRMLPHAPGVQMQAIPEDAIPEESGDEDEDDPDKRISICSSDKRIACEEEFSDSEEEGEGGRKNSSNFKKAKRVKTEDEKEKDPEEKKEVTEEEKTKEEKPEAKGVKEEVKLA

Structure (SMILES) | IC50 (Recombinant HDAC1) [nM] | IC50 (HDAC3/NCor2) [nM]
CS(=N)(=O)c1cnc(C(=O)Nc2cc(-c3ccc(F)cc3)ccc2N)s1 (centres unmarked) [Compound 188, N-[2-amino-5-(4-fluorophenyl)phenyl]-5-(methylsulfonimidoyl)thiazole-2-carboxamide] | < 100 | 500 to 2000
N=S(=O)(c1ccc(C(=O)Nc2cc(-c3ccc(F)cc3)ccc2N)cc1)c1cncc(F)c1 (centres unmarked) [Compound 206, N-(4-amino-4′-fluoro-[1,1′-biphenyl]-3-yl)-4-(5-fluoropyridine-3-sulfonimidoyl)benzamide] | < 100 | 500 to 2000
COc1ccc(S(=N)(=O)c2ccc(C(=O)Nc3cc(-c4ccc(F)cc4)ccc3N)cc2)cn1 (centres unmarked) [Compound 222, N-[2-amino-5-(4-fluorophenyl)phenyl]-4-[(6-methoxy-3-pyridyl)sulfonimidoyl]benzamide] | < 100 | 500 to 2000
Nc1ccc(-c2ccc(F)cc2)cc1NC(=O)c1ccc(S2(=O)=NCCCC2)cc1 (centres unmarked) [Compound 243, N-[2-amino-5-(4-fluorophenyl)phenyl]-4-(1-oxo-1thia-2-azacyclohexen-1-yl)benzamide] |  | 500 to 2000
Nc1ccc(-c2ccc(F)cc2)cc1NC(=O)c1ccc(S2(=O)=NCCC2)nc1 (centres unmarked) [Compound 178, N-[2-amino-5-(4-fluorophenyl)phenyl]-6-(1-oxo-4,5-dihydro-3H-isothiazol-1-yl)pyridine-3-carboxamide] |  | 500 to 2000
CS(=N)(=O)c1ccc(C(=O)Nc2cc(-c3ccc(F)cc3F)ccc2N)cc1 (centres unmarked) [Compound 117, N-[2-amino-5-(2,4-difluorophenyl)phenyl]-4-(methylsulfonimidoyl)benzamide] | < 100 | > 2000
COCCOCc1cncc(S(=N)(=O)c2ccc(C(=O)Nc3cc(-c4ccc(F)cc4)ccc3N)cc2)c1 (centres unmarked) [Compound 193, N-[2-amino-5-(4-fluorophenyl)phenyl]-4-[[5-(2-methoxyethoxymethyl)-3-pyridyl]sulfonimidoyl]benzamide] | < 100 | > 2000
Nc1ccc(-c2ccc(F)cc2)cc1NC(=O)c1cc2cc(S3(=O)=NCCC3)ccc2o1 (centres unmarked) [Compound 210] | < 100 | 500 to 2000
CS(=N)(=O)c1ccc(C(=O)Nc2cc(-c3ccc(F)cc3)ccc2N)cc1 (centres unmarked) [Compound 104, N-[2-amino-5-(4-fluorophenyl)phenyl]-4-(methylsulfonimidoyl)benzamide] | < 100 | 500 to 2000
CS(=N)(=O)c1cnc2sc(C(=O)Nc3cc(-c4ccc(F)cc4)ccc3N)cc2c1 (centres unmarked) [Compound 202, N-[2-amino-5-(4-fluorophenyl)phenyl]-5-(methylsulfonimidoyl)thieno[2,3-b]pyridine-2-carboxamide] | < 100 | > 2000
CS(=N)(=O)c1ccc2sc(C(=O)Nc3cc(-c4ccc(F)cc4)ccc3N)cc2c1 (centres unmarked) [Compound 173, N-[2-amino-5-(4-fluorophenyl)phenyl]-5-(methylsulfonimidoyl)benzothiophene-2-carboxamide] | < 100 | 500 to 2000
N=[S@](=O)(c1ccc(C(=O)Nc2cc(-c3ccc(F)cc3)ccc2N)cc1)C1CC1 (single isomer, unassigned) [Compound 145] | < 100 | 500 to 2000
Nc1ccc(-c2ccc(F)cc2)cc1NC(=O)c1cc2cc(S3(=O)=NCCC3)ccc2s1 (centres unmarked) [Compound 204] |  | 500 to 2000
CS(=N)(=O)Cc1ccc(C(=O)Nc2cc(-c3ccc(F)cc3)ccc2N)cn1 (centres unmarked) [Compound 201] |  | 500 to 2000
Nc1ccc(-c2ccc(F)cc2)cc1NC(=O)c1ccc(S2(=O)=NCCC2)cc1 (centres unmarked) [Compound 154, N-[2-amino-5-(4-fluorophenyl)phenyl]-4-(1-oxo-4,5-dihydro-3H-isothiazol-1-yl)benzamide] |  | 500 to 2000
Nc1ccc(-c2ccc(F)s2)cc1NC(=O)c1ccc(S2(=O)=NCCC2)cc1 (centres unmarked) [Compound 160, N-[2-amino-5-(5-fluoro-2-thienyl)phenyl]-4-(1-oxo-4,5-dihydro-3H-isothiazol-1-yl)benzamide] |  | 500 to 2000

Second part, the compound after the results:

IC50 (Recombinant HDAC1) [nM] | IC50 (HDAC3/NCor2) [nM] | Structure (SMILES)
< 100 | 500 to 2000 | N=S(=O)(c1ccccc1)c1ccc(C(=O)Nc2cc(-c3cccs3)ccc2N)cc1 (centres unmarked) [Compound 102, N-[2-amino-5-(2-thienyl)phenyl]-4-(phenylsulfonimidoyl)benzamide]
500 to 2000 | > 2000 | CS(=N)(=O)c1ccc(C(=O)Nc2cc(-c3ncccn3)ccc2N)cc1 (centres unmarked) [Compound 158, N-(2-amino-5-pyrimidin-2-yl-phenyl)-4-(methylsulfonimidoyl)benzamide]
< 100 | 500 to 2000 | C[S@@](=N)(=O)c1ccc(C(=O)Nc2cc(-c3cccs3)ccc2N)cc1 (single isomer, unassigned) [Compound 105]
< 100 | 500 to 2000 | N=S(=O)(c1ccc(C(=O)Nc2cc(-c3cccs3)ccc2N)cc1)c1ccccn1 (centres unmarked) [Compound 150, N-[2-amino-5-(2-thienyl)phenyl]-4-(2-pyridylsulfonimidoyl)benzamide]
< 100 | 500 to 2000 | N=S(=O)(c1ccc(C(=O)Nc2cc(-c3cccs3)ccc2N)cn1)C1CC1 (centres unmarked) [Compound 122, N-[2-amino-5-(2-thienyl)phenyl]-6-(cyclopropylsulfonimidoyl)pyridine-3-carboxamide]
< 100 | 500 to 2000 | C[S@](=N)(=O)c1ccc(C(=O)Nc2cc(-c3ccc(F)s3)ccc2N)cc1 [Compound 149, (S)—N-[2-amino-5-(5-fluoro-2-thienyl)phenyl]-4-(methylsulfonimidoyl)benzamide]
< 100 | 500 to 2000 | CS(=N)(=O)c1ccc(C(=O)Nc2cc(-c3cncs3)ccc2N)cc1 (centres unmarked) [Compound 148, N-(2-amino-5-thiazol-5-yl-phenyl)-4-(methylsulfonimidoyl)benzamide]
< 100 | > 2000 | CC(O)c1ccc(-c2ccc(N)c(NC(=O)c3ccc(S(C)(=N)=O)cc3)c2)s1 (centres unmarked) [Compound 255, N-[2-amino-5-[5-(1-hydroxyethyl)-2-thienyl]phenyl]-4-(methylsulfonimidoyl)benzamide]
< 100 | 500 to 2000 | Cc1ccncc1S(=N)(=O)c1ccc(C(=O)Nc2cc(-c3ccc(F)cc3)ccc2N)cc1 (centres unmarked) [Compound 198, N-[2-amino-5-(4-fluorophenyl)phenyl]-4-[(4-methyl-3-pyridyl)sulfonimidoyl]benzamide]
< 100 | 500 to 2000 | CS(=N)(=O)c1ccc(C(=O)Nc2cc(-c3ccc(F)s3)ccc2N)cc1 (centres unmarked) [Compound 109, N-[2-amino-5-(5-fluoro-2-thienyl)phenyl]-4-(methylsulfonimidoyl)benzamide]
< 100 | 500 to 2000 | CC(C)(C)C(=O)N=S(C)(=O)c1ccc(C(=O)Nc2cc(-c3cccs3)ccc2N)cc1 (centres unmarked) [Compound 125, N-[2-amino-5-(2-thienyl)phenyl]-4-[N-(2,2-dimethylpropanoyl)-S-methyl-sulfonimidoyl]benzamide]
 | 500 to 2000 | Nc1ccc(-c2cccs2)cc1NC(=O)c1ccc(S2(=O)=NCCC2)cc1 (centres unmarked) [Compound 126, N-[2-amino-5-(2-thienyl)phenyl]-4-(1-oxo-4,5-dihydro-3H-isothiazol-1-yl)benzamide]
 | 500 to 2000 | N=S(=O)(c1ccc(C(=O)Nc2cc(-c3ccc(F)cc3)ccc2N)cc1)c1ccc(Cl)cn1 (centres unmarked) [Compound 213]
